# Source: article PMC3177041 (Journal of Cachexia, Sarcopenia and Muscle, 2011)
# Test system: male Wistar rats
# Assay: chronic mild stress model, 1% sucrose consumption
# Type: in vivo, rat
# Conditions: stressed and control groups, 10 mg/kg once daily
smiles,measurement,value
CN(C)CCCN1c2ccccc2CCc2ccccc21 [imipramine],body mass gain in the 5 weeks of treatment vs vehicle-treated controls,gained less body mass
